Data published in patent publication US10513500B2, “Crystalline forms of Lesinurad” (Apotex Inc., priority 2016, dated 2019).
Entries after “also recorded” stand apart in the source; their conditions may differ. One block for each compound: values may come before it.

How the values were obtained:
[1] = PXRD study of crystal form stability on storage; assay type: physicochemical
Method: Lesinurad Form APO-I can be characterized by a PXRD diffractogram comprising, among other peaks, characteristic peaks, expressed in degrees 2θ (±0.2°), at 7.8°, 15.1° and 27.0°. Preferably, the PXRD diffractogram further comprises at least three peaks, expressed in degrees 2θ (±0.2°), selected from the group consisting of: 14.5°, 15.6°, 16.4°, 17.6°, 18.5°, 19.9°, 22.1°, 23.5°, 25.9° and 29.3°. More preferably, the PXRD diffractogram further comprises peaks, expressed in degrees 2θ (±0.2°), at 14.5°, 15.6°, 16.4°, 17.6°, 18.5°, 19.9°, 22.1°, 23.5°, 25.9° and 29.3°. PXRD studies of a capped sample of Lesinurad Form APO-I have shown that this crystal form is stable following storage in a stability chamber maintained at 27° C./60% RH for 17 days.
Lesinurad Form APO-II can be characterized by a PXRD diffractogram comprising, among other peaks, characteristic peaks, expressed in degrees 2θ (±0.2°), at 7.9°, 15.2°, 16.5° and 25.4°. Preferably, the PXRD diffractogram further comprises at least two peaks, expressed in degrees 2θ (±0.2°), selected from the group consisting of: 14.4°, 15.7°, 17.7°, 18.4°, 22.1°, 22.8°, 23.5°, 26.5°, 28.8° and 29.3°. More preferably, the PXRD diffractogram further comprises peaks, expressed in degrees 2θ (±0.2°), at 14.4°, 15.7°, 17.7°, 18.4°, 22.1°, 22.8°, 23.5°, 26.5°, 28.8° and 29.3°. PXRD studies of a capped sample of Lesinurad Form APO-II have shown that this crystal form is stable following storage at room temperature and ambient humidity for 28 days.
Lesinurad Form APO-III can be characterized by a PXRD diffractogram comprising, among other peaks, characteristic peaks, expressed in degrees 2θ (±0.2°), at 6.2° and 19.9°. Preferably, the PXRD diffractogram further comprises at least four peaks, expressed in degrees 2θ (±0.2°), selected from the group consisting of: 7.6, 10.3°, 14.1°, 15.3°, 17.8°, 21.1°, 23.4°, 25.7° and 27.2°. More preferably, the PXRD diffractogram further comprises peaks, expressed in degrees 2θ (±0.2°), at 7.6°, 10.3°, 14.1°, 15.3°, 17.8°, 21.1°, 23.4°, 25.7° and 27.2°. PXRD studies of capped and uncapped samples of Lesinurad Form APO-III have shown that this crystal form is stable following storage in stability chambers maintained at 27° C./60% RH and 40° C./75% RH for 18 days.
Data were acquired on a PANanalytical X-Pert Pro MPD diffractometer with fixed divergence slits and an X'Celerator RTMS detector. The diffractometer was configured in Bragg-Brentano geometry; data was collected over a 2-theta range of 3° to 40° using CuKα radiation at a power of 40 mA and 45 kV. […] was removed using a divergent beam nickel filter. A step size of 0.017° was used. Samples were rotated to reduce preferred orientation effects. Samples were lightly ground prior to analysis. […]

[2] = Stability study under stress conditions (impurities, area %); assay type: physicochemical; details: for Major Unidentified Impurity: RRT in brackets
Method: (§1) The stability of Lesinurad Form APO-III was assessed under various stress conditions as outlined in Table 5.

[3] = Hygroscopicity on storage in humid, high temperature environment; assay type: physicochemical; details: stress conditions of Table 5 (open sample, 40° C./75% RH, 21 days)
Method: as §1
The title solid form of Lesinurad was prepared according to the procedure in Example 14 of WO 2015/095703 A1. A suspension of Lesinurad (1 g) in ethyl acetate (63 mL) was sonicated at room temperature for 30 minutes in order to achieve dissolution. Proline (570 mg) was added to the solution, and the resulting suspension was stirred at room temperature for 26 hours, at which time the suspension was isolated by filtration to afford a solid (872.9 mg, 68% yield) having a PXRD diffractogram consistent with FIG. 22 in WO 2015/095703 A1. […]

[4] = primary amine group; cited from earlier work
[5] = certain aqueous conditions, compared with Form 1; cited from earlier work
[6] = dry heat, heat/humidity and light exposure
[7] = light exposure 200 W·hr/m^2 UV + 1.2M LUX hr fluorescent
[8] = open sample, dry heat, solid state, 60° C./ambient RH, 21 days
[9] = open sample, heat/humidity, solid state, 40° C./75% RH, 21 days
[10] = sample wrapped in foil (control), light exposure 200 W·hr/m^2 UV + 1.2M LUX hr fluorescent

crystal form stability by PXRD ([1]; capped and uncapped samples, 27° C./60% RH, 18 days): no change; also recorded: stable
crystal form stability by PXRD ([1]; capped and uncapped samples, 40° C./75% RH, 18 days): no change; also recorded: stable
Total Identified Impurity ([2]; Non-stressed sample): 0.09 area %
Total Impurities ([2]; Non-stressed sample): 0.33 area %
Total Unidentified Impurity ([2]; Non-stressed sample): 0.24 area %
Major Unidentified Impurity ([2]; Non-stressed sample): 0.08 (0.91) area %
loss of Lesinurad [2, 6]: no significant loss
stability to stress conditions [2, 6]: good stability
total degradation ([2]; dry heat, heat/humidity and light exposure (Table 5)): less than 0.10%
chemical and physical stability ([2]; humid and high temperature environment): chemically and physically stable
Total Identified Impurity [2, 7]: 0.10 area %
Total Impurities [2, 7]: 0.46 area %
Total Unidentified Impurity [2, 7]: 0.35 area %
Major Unidentified Impurity [2, 7]: 0.09 (0.92) area %
Total Identified Impurity [2, 8]: 0.10 area %
Total Impurities [2, 8]: 0.40 area %
Total Unidentified Impurity [2, 8]: 0.30 area %
Major Unidentified Impurity [2, 8]: 0.09 (0.91) area %
Total Identified Impurity [2, 9]: 0.09 area %
Total Impurities [2, 9]: 0.38 area %
Total Unidentified Impurity [2, 9]: 0.29 area %
Major Unidentified Impurity [2, 9]: 0.09 (0.91) area %
Total Identified Impurity [2, 10]: 0.10 area %
Total Impurities [2, 10]: 0.42 area %
Total Unidentified Impurity [2, 10]: 0.32 area %
Major Unidentified Impurity [2, 10]: 0.09 (0.92) area %
hygroscopicity [3]: did not exhibit signs of hygroscopicity
Compound: O=C(O)CSc1nnc(Br)n1-c1ccc(C2CC2)c2ccccc12 [Lesinurad Form APO-III, Lesinurad]

Compound: O=C(O)[C@@H]1CCCN1 [Proline]
pKa [4]: approximately 10.6

Compound: O=C(O)CSc1nnc(Br)n1-c1ccc(C2CC2)c2ccccc12 [Form 2, Lesinurad]
solubility [5]: lower solubility than Form 1

crystal form stability by PXRD ([1]; capped sample, stability chamber 27° C./60% RH, 17 days): stable; also recorded: no change
Compound: O=C(O)CSc1nnc(Br)n1-c1ccc(C2CC2)c2ccccc12 [Lesinurad Form APO-I, Lesinurad]

crystal form stability by PXRD ([1]; capped sample, room temperature and ambient humidity, 28 days): no change; also recorded: stable
Compound: O=C(O)CSc1nnc(Br)n1-c1ccc(C2CC2)c2ccccc12 [Lesinurad Form APO-II, Lesinurad]
